BindingDB's records for doi:10.1016/j.bmc.2012.07.032 (Takeda Pharmaceutical, 2012)

Test: Inhibition of VEGFR2 in HUVEC assessed as reduction of VGF-stimulated cell proliferation after 5 days

## CN(c1ccc(F)c(NC(=O)c2cccc(OC(C)(C)C#N)c2Cl)c1)c1ccc2nc(NC(=O)C3CC3)sc2n1
  IC50: 1.2 nM
